# Measurements reported in patent US20250073226A1, “USE OF OPIOID FOR TREATMENT OF AUTISM SPECTRUM DISORDERS” (priority 2021, published 2025).
# Several values for one entry are separate records, joined by “and”; a condition that tells them apart may be missing. Identical values can stand only once. Marks after values point to notes of the source that are not given here.
# Experiments:
# [1] = test system: valproic acid model mice (VPA model); test: Social interaction test in valproic acid model mice; type: in vivo, ICR mice; settings: single s.c. dose
# Source text: Since ASD-like symptoms such as social impairment and cognitive dysfunction are observed, it is one of the most widely used the ASD model mice.
# As the sociality evaluation, a method called a social interaction test was used. In the Social Interaction Test, two mice are placed in one cage, and how many seconds a target mouse (Test mouse) performs sniffing, which is social behavior, on another mouse (Intruder mouse) is quantified.
# [2] = test system: VPA model; test: Antagonist test with naloxone in VPA model; type: in vivo, mice; settings: naloxone hydrochloride 1 mg/kg s.c. 15 minutes before buprenorphine 0.003 mg/kg s.c.
# Description: In the same manner as in Example 1, to the VPA model, Saline or a MOR selective antagonist, naloxone hydrochloride was subcutaneously administered so as to be 1 mg/kg as a hydrochloride, and 15 minutes after that, 0.003 mg/kg of buprenorphine was subcutaneously administered, and the amount of social behavior for 1 hour from 20 minutes after administration of buprenorphine was quantified.
# [3] = Estimation of buprenorphine maximum plasma concentration in humans by proportional calculation; settings: human, other: transdermal, 10 ug/kg
# Description: As described above, preferred maximum plasma concentrations in ASD applications in mice are in the range of 26.6 pg/mL (at the time of administration of 0.3 pg/kg) to 2360 μg/mL (at the time of administration of 30p/kg) (preferably more than about 26.6 pg/mL and less than about 2360 μg/mL).
# [4] = test system: Fmr1 knockout mice; test: 3 chamber test in Fmr1 knockout mice; type: in vivo; settings: single subcutaneous administration, low dose of less than 1/10 of 1 mg/kg
# Source text: It is known that patients with human fragile X syndrome (FXS), which is caused by abnormalities of the X chromosome, present with social impairment symptoms, such as those often seen in ASD (Non-patent Documents 7 to 9). The Fmr1 knockout mouse (Cell, 1994, 15; 78 (1): 23-33) is a model mouse that mimics human fragile X syndrome (FXS), and is also widely used as a model of ASD. Buprenorphine hydrochloride, a MOR partial agonist used as an analgesic, and physiological saline of a solvent were administered once, and the action on social dysfunction of Fmr1 knockout mice was examined. The dose was calculated as a free form for buprenorphine. As a social function evaluation, a 3 chamber test (Nature Medicine, 2017, 23; p674-677) was used. In the 3chamber test, two types of mice (Unfamiliar and Familiar) are placed in cups at both left and right ends of three compartments, and a ratio of time to search for a mouse with high novelty to a mouse with low novelty is calculated and quantified as social function (preference to a mouse with high novelty).
# [5] = test system: mice; settings: Non-patent Document 28, cited from earlier work
# [6] = Pharmacokinetic: drug concentrations in plasma by LC-MS after subcutaneous administration; settings: for concentration at 0.5 h: Plasma concentration 0.5 hr; for concentration at 1 h: Plasma concentration 1 hr; for concentration at 3 h: Plasma concentration 3 hr; for concentration at 12 h: Plasma concentration 12 hr; for concentration at 24 h: Plasma concentration 24 hr
# [7] = test system: medial prefrontal cortex; test: Brain activation: c-Fos positive cells in medial prefrontal cortex; type: in vivo, mice; settings: VPA model, 1 hour after administration
# Description: Saline or buprenorphine at 0.0003, 0.003, or 0.03 mg/kg was administered to the VPA model, and 1 hour after that, the brain was extracted and immunostained with an anti-c-Fos antibody, and the number of c-Fos positive cells in nucleus accumens (NAc) and medial prefrontal cortex, which are brain regions known to promote social behavior, and dorsomedial periaqueductal gray (dmPAG), which is a brain region known to reduce social behavior and to be involved in the expression of analgesic effects, was quantified as the number of activated nerve cells.
# [8] = ICR mice, buprenorphine 0.1 μg/kg s.c., individual samples
# [9] = ICR mice, buprenorphine 0.3 μg/kg s.c., individual samples
# [10] = ICR mice, buprenorphine 3 μg/kg s.c., individual samples
# [11] = ICR mice, buprenorphine 10 μg/kg s.c., individual samples
# [12] = ICR mice, buprenorphine 30 μg/kg s.c., individual samples
# [13] = ICR, mouse, plasma, sc, 0.1 μg/kg, ICR mice, buprenorphine 0.1 μg/kg s.c., Mean
# [14] = ICR, mouse, plasma, sc, 0.1 μg/kg, ICR mice, buprenorphine 0.1 μg/kg s.c., individual samples
# [15] = ICR, mouse, plasma, sc, 0.3 μg/kg, ICR mice, buprenorphine 0.3 μg/kg s.c., Mean
# [16] = ICR, mouse, plasma, sc, 0.3 μg/kg, ICR mice, buprenorphine 0.3 μg/kg s.c., individual samples
# [17] = ICR, mouse, plasma, sc, 1 μg/kg, ICR mice, buprenorphine 1 μg/kg s.c., Measured value
# [18] = ICR, mouse, plasma, sc, 3 μg/kg, ICR mice, buprenorphine 3 μg/kg s.c., Mean
# [19] = ICR, mouse, plasma, sc, 3 μg/kg, ICR mice, buprenorphine 3 μg/kg s.c., individual samples
# [20] = ICR, mouse, plasma, sc, 10 μg/kg, ICR mice, buprenorphine 10 μg/kg s.c., Mean
# [21] = ICR, mouse, plasma, sc, 10 μg/kg, ICR mice, buprenorphine 10 μg/kg s.c., individual samples
# [22] = ICR, mouse, plasma, sc, 30 μg/kg, ICR mice, buprenorphine 30 μg/kg s.c., Mean
# [23] = ICR, mouse, plasma, sc, 30 μg/kg, ICR mice, buprenorphine 30 μg/kg s.c., individual samples
compound,measurement,setting,value
"CO[C@]12CC[C@@]3(C[C@@H]1[C@](C)(O)C(C)(C)C)[C@H]1Cc4ccc(O)c5c4[C@@]3(CCN1CC1CC1)[C@H]2O5 [buprenorphine, 21-cyclopropyl-7-a-[(S)-1-hydroxy-1,2,2-trimethylpropyl]-6,14-endo-ethano-6,7,8,14 tetrahydrooripavine]",improvement effect in social impairment at a high dose,[1]; high dose close to the analgesic dose,reduced the improvement effect in social impairment
same,improvement effect in social impairment,"[1]; low dose of less than 1/10 of the dose of maximum analgesic effect, 20 minutes from 1 hour after administration",significant improvement effect in social impairment
same,improvement effect in social impairment with combined use of naloxone,[2],antagonized by combined use of naloxone
same,Cmax,[3],0.084 to 0.176 ng/mL
same,improvement effect in social impairment (3 chamber test),[4],significant improvement effect in social impairment
same,dose at which the analgesic effect was maximum,[5],1 mg/kg
same,minimum dose at which the analgesic effect is observed,[5]; subcutaneous administration,0.01 mg/kg
same,Plasma concentration 0.5 hr,[6]; [8],6.85 pg/mL and 6.52 pg/mL
same,Plasma concentration 1 hr,[6]; [8],4.66 pg/mL and 5.36 pg/mL
same,Plasma concentration 3 hr,[6]; [8],BLQ (BLQ: LLOQ (lower limit of quantitation: 2 pg/mL) or less)
same,Plasma concentration 12 hr,[6]; [8],BLQ (BLQ: LLOQ (lower limit of quantitation: 2 pg/mL) or less)
same,Plasma concentration 24 hr,[6]; [8],BLQ (BLQ: LLOQ (lower limit of quantitation: 2 pg/mL) or less)
same,Plasma concentration 0.5 hr,[6]; [9],26 pg/mL and 30.9 pg/mL
same,Plasma concentration 1 hr,[6]; [9],13.7 pg/mL and 16.5 pg/mL
same,Plasma concentration 3 hr,[6]; [9],5.08 pg/mL and 4.87 pg/mL
same,Plasma concentration 12 hr,[6]; [9],BLQ (BLQ: LLOQ (lower limit of quantitation: 2 pg/mL) or less)
same,Plasma concentration 24 hr,[6]; [9],BLQ (BLQ: LLOQ (lower limit of quantitation: 2 pg/mL) or less)
same,Cmax,"[6]; ICR mice, buprenorphine 1 μg/kg s.c.",0.067 ng/mL
same,Plasma concentration 0.5 hr,[6]; [10],260 pg/mL and 271 pg/mL
same,Plasma concentration 1 hr,[6]; [10],119 pg/mL and 127 pg/mL
same,Plasma concentration 3 hr,[6]; [10],47.6 pg/mL and 83.3 pg/mL
same,Plasma concentration 12 hr,[6]; [10],0.00358 ng/mL and 0.00346 ng/mL
same,Plasma concentration 24 hr,[6]; [10],BLQ (BLQ: LLOQ (lower limit of quantitation: 2 pg/mL) or less)
same,Cmax,"[6]; ICR mice, buprenorphine 10 μg/kg s.c.",0.67 ng/mL
same,Plasma concentration 0.5 hr,[6]; [11],711* pg/mL and 666* pg/mL
same,Plasma concentration 1 hr,[6]; [11],471* pg/mL and 367* pg/mL
same,Plasma concentration 3 hr,[6]; [11],145 pg/mL and 135 pg/mL
same,Plasma concentration 12 hr,[6]; [11],0.0171 ng/mL and 0.0271 ng/mL and 0.00669 ng/mL
same,Plasma concentration 24 hr,[6]; [11],BLQ (BLQ: LLOQ (lower limit of quantitation: 2 pg/mL) or less)
same,Cmax,"[6]; ICR mice, buprenorphine 30 μg/kg s.c.",2.36 ng/mL
same,Plasma concentration 0.5 hr,[6]; [12],2560* pg/mL and 2770* pg/mL
same,Plasma concentration 1 hr,[6]; [12],1480* pg/mL and 1670* pg/mL
same,Plasma concentration 3 hr,[6]; [12],436* pg/mL and 494* pg/mL
same,Plasma concentration 12 hr,[6]; [12],0.0312 ng/mL and 0.0727 ng/mL and 0.0313 ng/mL
same,Plasma concentration 24 hr,[6]; [12],0.00768 ng/mL and 0.0042 ng/mL
same,Cmax,"[6]; ICR, mouse, plasma, sc, 0.1 ug/kg",0.00778 ng/mL
same,concentration at 0.5 h,[6]; [13],0.00778 ng/mL
same,concentration at 0.5 h,[6]; [14],0.00998 ng/mL
same,concentration at 1 h,[6]; [13],0.00485 ng/mL
same,concentration at 1 h,[6]; [14],0.00452 ng/mL
same,concentration at 3 h,[6]; [13],0.001 ng/mL
same,concentration at 3 h,[6]; [14],0.00299 ng/mL
same,concentration at 12 h,[6]; [13],0 ng/mL
same,concentration at 24 h,[6]; [13],0 ng/mL
same,Cmax,"[6]; ICR, mouse, plasma, sc, 0.3 ug/kg",0.0266 ng/mL
same,concentration at 0.5 h,[6]; [15],0.0266 ng/mL
same,concentration at 0.5 h,[6]; [16],0.0228 ng/mL
same,concentration at 1 h,[6]; [15],0.0148 ng/mL
same,concentration at 1 h,[6]; [16],0.0143 ng/mL
same,concentration at 3 h,[6]; [15],0.00477 ng/mL
same,concentration at 3 h,[6]; [16],0.00436 ng/mL
same,concentration at 12 h,[6]; [15],0 ng/mL
same,concentration at 24 h,[6]; [15],0 ng/mL
same,Cmax,"[6]; ICR, mouse, plasma, sc, 1 ug/kg",0.067 ng/mL
same,concentration at 0.5 h,[6]; [17],0.067 ng/mL
same,concentration at 1 h,[6]; [17],0.025 ng/mL
same,concentration at 3 h,[6]; [17],0.02 ng/mL
same,Cmax,"[6]; ICR, mouse, plasma, sc, 3 ug/kg",0.268 ng/mL
same,concentration at 0.5 h,[6]; [18],0.268 ng/mL
same,concentration at 0.5 h,[6]; [19],0.274 ng/mL
same,concentration at 1 h,[6]; [18],0.126 ng/mL
same,concentration at 1 h,[6]; [19],0.132 ng/mL
same,concentration at 3 h,[6]; [18],0.0641 ng/mL
same,concentration at 3 h,[6]; [19],0.0613 ng/mL
same,concentration at 12 h,[6]; [18],0.00312 ng/mL
same,concentration at 12 h,[6]; [19],0.00231 ng/mL
same,concentration at 24 h,[6]; [18],0 ng/mL
same,Cmax,"[6]; ICR, mouse, plasma, sc, 10 ug/kg",0.67 ng/mL
same,concentration at 0.5 h,[6]; [20],0.67 ng/mL
same,concentration at 0.5 h,[6]; [21],0.632 ng/mL
same,concentration at 1 h,[6]; [20],0.399 ng/mL
same,concentration at 1 h,[6]; [21],0.358 ng/mL
same,concentration at 3 h,[6]; [20],0.147 ng/mL
same,concentration at 3 h,[6]; [21],0.16 ng/mL
same,concentration at 12 h,[6]; [20],0.017 ng/mL
same,concentration at 24 h,[6]; [20],0.000777 ng/mL
same,concentration at 24 h,[6]; [21],0.00233 ng/mL
same,Cmax,"[6]; ICR, mouse, plasma, sc, 30 ug/kg",2.36 ng/mL
same,concentration at 0.5 h,[6]; [22],2.36 ng/mL
same,concentration at 0.5 h,[6]; [23],1.76 ng/mL
same,concentration at 1 h,[6]; [22],1.49 ng/mL
same,concentration at 1 h,[6]; [23],1.32 ng/mL
same,concentration at 3 h,[6]; [22],0.447 ng/mL
same,concentration at 3 h,[6]; [23],0.412 ng/mL
same,concentration at 12 h,[6]; [22],0.0451 ng/mL
same,concentration at 24 h,[6]; [22],0.00551 ng/mL
same,concentration at 24 h,[6]; [23],0.00464 ng/mL
same,number of activated nerve cells (c-Fos positive cells),[7]; 0.003 mg/kg,significantly increased
same,number of activated nerve cells (c-Fos positive cells),[7]; 0.03 mg/kg,significantly increased
